{"source": "patent US12370265B2", "about": "“Hydrogel for in-vivo release of medication” (UMC Utrecht Holding B.V., priority 2019, dated 2025)", "key": {"[1]": {"conditions": "local anaesthetic; cited from earlier work"}, "[2]": {"assay": "Directional release from hydrogel coated with PCL on one side, in 3% alginate gel", "type": "physicochemical", "description": "Release of methylene blue from the hydrogel was simulated in a 3% alginate gel, cross-linked with calcium chloride to obtain a tissue-like consistency. Only the top part of the hydrogel was coated with PCL. The samples were inspected at 0, 1, 2, and 3 hours. Hydrogels were positioned vertically to eliminate any effect of gravity on the direction of release. […] The same experiment was performed with bupivacaine."}}}
{"smiles": "CCCCN1CCCCC1C(=O)Nc1c(C)cccc1C", "note": "(stereo not drawn) [bupivacaine]", "values": [{"measurement": "duration of its effect", "setting": "[1]", "result": "approx. 8 hours"}, {"measurement": "cumulative release", "setting": "[2]; from the PCL-covered direction, after 8 hours", "result": "about 2 mg"}, {"measurement": "time to reach cumulative release of about 2 mg", "setting": "[2]; non-PCL covered direction", "result": "≤ 1", "unit": "h"}]}
